Where a name gives a salt, the structure may show the parent alone. Read-outs that look alike come from different tables or passages of the source.

In assay [1] the target is T1, SARS-CoV-2 PLpro (nsp3 1564–1878) (Severe acute respiratory syndrome coronavirus 2, UniProt P0DTD1). In words: biochemical. Also on record: FRET-quenched peptide (Pro3) cleavage by PLpro, 10 min pre-incubation, slope over 20 min, normalised to no-compound control. Conditions: low concentration screen, read-out: % of control remaining.
Assay [2] addresses T1, SARS-CoV-2 PLpro (nsp3 1564–1878). In words: biochemical. Conditions: high concentration screen, read-out: % of control remaining. More on the design: FRET-quenched peptide (Pro3) cleavage by PLpro, 10 min pre-incubation, slope over 20 min, normalised to no-compound control.

On to `O=S(=O)(O)c1cc(S(=O)(=O)O)c2c(N=Nc3ccc(S(=O)(=O)O)c4ccccc34)c(O)ccc2c1` [Ponceau 4R], for which the remaining activity at 1.25 µM in assay [1] (Well no.=8550) was determined as 104%. Besides, the remaining activity at 3.75 µM in assay [2] (Well no.=8550) was 102%.
As for `CCC/N=C1\S/C(=C\c2ccc(OC[C@H](O)CO)c(Cl)c2)C(=O)N1c1ccccc1C` [Ponesimod], the remaining activity at 1.25 µM in assay [1] (Well no.=8001) came out at 106%. Moreover, in assay [2] (Well no.=8001), the remaining activity at 3.75 µM came to 102%.
Consider `CC[C@@H]([C@H](C)O)n1ncn(-c2ccc(N3CCN(c4ccc(OC[C@@H]5CO[C@@](Cn6cncn6)(c6ccc(F)cc6F)C5)cc4)CC3)cc2)c1=O` [Posaconazole], for which the remaining activity at 1.25 µM in assay [1] (Well no.=4763) came out at 93.6%. Also, the remaining activity at 3.75 µM in assay [2] (Well no.=4763) amounted to 92.9%.
Turning to `C#CCC(Cc1cnc2nc(N)nc(N)c2n1)c1ccc(C(=O)N[C@@H](CCC(=O)O)C(=O)O)cc1` (stereo partly drawn) [Pralatrexate], the remaining activity at 1.25 µM in assay [1] (Well no.=7550) came to 97%; in assay [1] (Well no.=9172), 83.9%. For the same compound, the values for the remaining activity at 3.75 µM in assay [2] (Well no.=7550) and in assay [2] (Well no.=9172) were 95.8% and 84.5%, respectively.
On to `CCCN[C@H]1CCc2nc(N)sc2C1` [Pramipexole (dihydrochloride)], for which, in assay [1] (Well no.=6229), the remaining activity at 1.25 µM is 108%. For the same compound, in assay [2] (Well no.=6229), the remaining activity at 3.75 µM worked out at 106%.
Regarding `CCCN[C@H]1CCc2nc(N)sc2C1` [Pramipexole], in assay [1] (Well no.=1983), the remaining activity at 1.25 µM stood at 101%. Moreover, the remaining activity at 3.75 µM in assay [2] (Well no.=1983) is 104%.
In the case of `CC(C)N(CCNC(=O)CN1CCCC1=O)C(C)C` [Pramiracetam], in assay [1] (Well no.=4950), the remaining activity at 1.25 µM worked out at 96.1%. For the same compound, the remaining activity at 3.75 µM in assay [2] (Well no.=4950) was found to be 96.4%.
On to `O=C(Nc1cccc2c(=O)cc(-c3nnn[nH]3)oc12)c1ccc(OCCCCc2ccccc2)cc1` [Pranlukast], for which the figures for the remaining activity at 1.25 µM in assay [1] (Well no.=1720) and in assay [1] (Well no.=7329) were 99.8% and 103%, respectively. For the same compound, the remaining activity at 3.75 µM in assay [2] (Well no.=1720) is 101%; in assay [2] (Well no.=7329), 98.4%.
With `CC(C(=O)O)c1ccc2c(c1)Cc1cccnc1O2` (stereo not drawn) [Pranoprofen], the remaining activity at 1.25 µM in assay [1] (Well no.=2139) was 98.7%. Further, the remaining activity at 3.75 µM in assay [2] (Well no.=2139) was 99.8%.
In the case of `CC(=O)Oc1cc2c(s1)CCN(C(C(=O)C1CC1)c1ccccc1F)C2` (stereo not drawn) [Prasugrel (Effient)], the remaining activity at 1.25 µM in assay [1] (Well no.=4765) came to 103%. The remaining activity at 3.75 µM in assay [2] (Well no.=4765) amounted to 104%.
On to `CC(=O)Oc1cc2c(s1)CCN(C(C(=O)C1CC1)c1ccccc1F)C2` (stereo not drawn) [Prasugrel], for which the remaining activity at 1.25 µM in assay [1] (Well no.=6562) is 97%. Besides, the remaining activity at 3.75 µM in assay [2] (Well no.=6562) was determined as 102%.
Turning to `COc1ccc(-c2cc(=O)c3ccc(O)cc3o2)cc1` [Pratol], the remaining activity at 1.25 µM in assay [1] (Well no.=3829) was determined as 97.5%. The remaining activity at 3.75 µM in assay [2] (Well no.=3829) turned out to be 96.6%.
`COc1ccc(C(=O)c2c(C)n(CCN3CCOCC3)c3ccccc23)cc1` [Pravadoline]: the remaining activity at 1.25 µM in assay [1] (Well no.=1805) worked out at 97.2%. Further, the remaining activity at 3.75 µM in assay [2] (Well no.=1805) turned out to be 97.7%.
In the case of `CC[C@H](C)C(=O)O[C@H]1C[C@H](O)C=C2C=C[C@H](C)[C@H](CC[C@@H](O)C[C@@H](O)CC(=O)O)[C@H]21` [Pravastatin sodium salt hydrate], the remaining activity at 1.25 µM in assay [1] (Well no.=5462) worked out at 96.8%. In addition, in assay [2] (Well no.=5462), the remaining activity at 3.75 µM was determined as 97.8%.
On to `CC[C@H](C)C(=O)O[C@H]1C[C@H](O)C=C2C=C[C@H](C)[C@H](CC[C@@H](O)C[C@@H](O)CC(=O)O)[C@H]21` [Pravastatin sodium], for which the remaining activity at 1.25 µM in assay [1] (Well no.=4889) was 96.4%. The remaining activity at 3.75 µM in assay [2] (Well no.=4889) stood at 96.9%.
Consider `O=C(C1CCCCC1)N1CC(=O)N2CCc3ccccc3C2C1` (stereo not drawn) [Praziquantel], for which the remaining activity at 1.25 µM in assay [1] (Well no.=908) is 106%; in assay [1] (Well no.=2155) it was 102%. Moreover, the remaining activity at 3.75 µM in assay [2] (Well no.=908) stood at 104%; in assay [2] (Well no.=2155), 100%.
With `COc1cc2nc(N3CCN(C(=O)C4=CC5C=CC4CC5)CC3)nc(N)c2cc1OC` (stereo not drawn) [Prazobind], the remaining activity at 1.25 µM in assay [1] (Well no.=1311) turned out to be 104%. The remaining activity at 3.75 µM in assay [2] (Well no.=1311) was 105%.
As for `COc1cc2nc(N3CCN(C(=O)c4ccco4)CC3)nc(N)c2cc1OC` [Prazosin (hydrochloride)], the remaining activity at 1.25 µM in assay [1] (Well no.=6411) was found to be 96.4%. For the same compound, the remaining activity at 3.75 µM in assay [2] (Well no.=6411) came out at 85.9%.
Consider `COc1cc2nc(N3CCN(C(=O)c4ccco4)CC3)nc(N)c2cc1OC` [Prazosin.HCl], for which the remaining activity at 1.25 µM in assay [1] (Well no.=1689) was 103%. The remaining activity at 3.75 µM in assay [2] (Well no.=1689) stood at 100%.
On to `CC(=O)OCC(=O)[C@@]1(O)CC[C@H]2[C@@H]3CCC4=CC(=O)C=C[C@]4(C)[C@H]3[C@@H](O)C[C@@]21C` [Prednisolone acetate], for which the remaining activity at 1.25 µM in assay [1] (Well no.=5859) is 102%. Moreover, the remaining activity at 3.75 µM in assay [2] (Well no.=5859) stood at 95.6%.
Take `C[C@]12C=CC(=O)C=C1CC[C@@H]1[C@@H]2[C@@H](O)C[C@@]2(C)[C@H]1CC[C@]2(O)C(=O)CO` [Prednisolone]: the remaining activity at 1.25 µM in assay [1] (Well no.=2141) came to 99.3%; in assay [1] (Well no.=6605), 102%. The remaining activity at 3.75 µM in assay [2] (Well no.=6605) turned out to be 102%.
For the compound `C[C@]12C=CC(=O)C=C1CC[C@@H]1[C@@H]2C(=O)C[C@@]2(C)[C@H]1CC[C@]2(O)C(=O)CO` [Prednisone], the remaining activity at 1.25 µM amounted to 97.7% in assay [1] (Well no.=2149) and 109% in assay [1] (Well no.=7429). The remaining activity at 3.75 µM in assay [2] (Well no.=2149) was 103%; in assay [2] (Well no.=7429), 101%.
As to `CC(=O)[C@H]1CC[C@H]2[C@@H]3CC=C4C[C@@H](OS(=O)(=O)O)CC[C@]4(C)[C@H]3CC[C@]12C` [Pregnenolone sulfate sodium], the remaining activity at 1.25 µM in assay [1] (Well no.=1169) came out at 101%. Also, in assay [2] (Well no.=1169), the remaining activity at 3.75 µM was 102%.
As for `CC(=O)[C@H]1CC[C@H]2[C@@H]3CC=C4C[C@@H](O)CC[C@]4(C)[C@H]3CC[C@]12C` [Pregnenolone], the remaining activity at 1.25 µM in assay [1] (Well no.=2151) is 103%; in assay [1] (Well no.=6277), 106%; in assay [1] (Well no.=6919) it was 108%. For the same compound, the remaining activity at 3.75 µM is 103% in assay [2] (Well no.=2151), 102% in assay [2] (Well no.=6277) and 106% in assay [2] (Well no.=6919).
For the compound `COCCOc1ccc(N2CCN(CCn3ncc4c3nc(N)n3nc(-c5ccco5)nc43)CC2)cc1` [Preladenant], in assay [1] (Well no.=7141), the remaining activity at 1.25 µM was found to be 102%. In assay [2] (Well no.=7141), the remaining activity at 3.75 µM amounted to 102%.
With `CCCNC(C)C(=O)Nc1ccccc1C` (stereo not drawn) [Prilocaine hydrochloride], the remaining activity at 1.25 µM in assay [1] (Well no.=1355) was found to be 97.2%. Moreover, the remaining activity at 3.75 µM in assay [2] (Well no.=1355) worked out at 98.5%.
For `CCCNC(C)C(=O)Nc1ccccc1C` (stereo not drawn) [Prilocaine], the remaining activity at 1.25 µM in assay [1] (Well no.=4616) was found to be 100%. Further, the remaining activity at 3.75 µM in assay [2] (Well no.=4616) came out at 93.7%.
As to `COc1cc(NC(C)CCCN)c2ncccc2c1` (stereo not drawn) [Primaquine], the remaining activity at 1.25 µM in assay [1] (Well no.=2153) worked out at 97.8%. For the same compound, the remaining activity at 3.75 µM in assay [2] (Well no.=2153) was determined as 98.9%.

Values taken from publication PMC8286840, “Identifying SARS-CoV-2 antiviral compounds by screening for small molecule inhibitors of Nsp3 papain-like protease” (Biochemical Journal, 2021).
